Reference: patent US8802694B2, “3,6-diazabicyclo[3.1.1]heptanes as neuronal nicotinic acetycholine receptor ligands” (Targacept, Inc., priority 2009, dated 2014)
Where two headings read alike, the source gives them in different places.

Assays:
Human α4β2 = target: T1, Human α4β2 (Homo sapiens, UniProt P17787+P43681); assay: Competition binding to human α4β2 receptors in membranes of SH-EP1/human α4β2 cells ([3H]-nicotine); details: membrane competition binding
T1 construct: host or cells: SH-EP1

Rat α4β2 = target: T2, Rat α4β2 (Rattus norvegicus, UniProt P09483+P12390); assay: Competition binding to rat α4β2 receptors in rat cortical membranes; details: rat cortex membranes
T2 construct: Rat cortices were obtained from Analytical Biological Services; tissue Analytical Biological Services, Incorporated (ABS, Wilmington, Del.); host or cells: rat cortex (female Sprague-Dawley)
Method: Preparation of membranes from rat tissues. Rat cortices were obtained from Analytical Biological Services, Incorporated (ABS, Wilmington, Del.). Tissues were dissected from female Sprague-Dawley rats, frozen and shipped on dry ice. Tissues were stored at −20° C. until needed for membrane preparation. […] The resulting homogenate was centrifuged at 40,000 g for 20 minutes at 4° C. and the resulting pellet was resuspended in 20 volumes of ice-cold water. After 60-minute incubation at 4° C., a new pellet was collected by centrifugation at 40,000 g for 20 minutes at 4° C. The final pellet was resuspended in preparative buffer and stored at −20° C. On the day of the assay, tissue was thawed, centrifuged at 40,000 g for 20 minutes and then resuspended in PBS (Dulbecco's Phosphate Buffered Saline, Life Technologies, pH 7.4) to a final concentration of 2-3 mg protein/mL. Protein concentrations were determined using the Pierce BCA Protein Assay kit (Pierce Biotechnology, Rockford, Ill.), with bovine serum albumin as the standard.
Competition binding to receptors in membrane preparations. […] In brief, membranes were reconstituted from frozen stocks (approximately 0.2 mg protein) and incubated for 2 h on ice in […] assay buffer (PBS) in the presence of competitor compound (0.001 nM to […]) and radioligand. [^3H]-nicotine (L-(−)-[N-methyl-3H]-nicotine, 69.5 Ci/mmol, Perkin-Elmer Life Sciences) was used for human α4β2 binding studies. [^3H]-epibatidine (52 Ci/mmol, Perkin-Elmer Life Sciences) was used for binding studies at the other receptor subtypes. […] Filters were washed 3 times and the radioactivity retained was determined by liquid scintillation counting.
Binding data analysis. Binding data were expressed as percent total control binding. Replicates for each point were averaged and plotted against the log of drug concentration.

α6β3β4α5 = target: T3, α6β3β4α5 (Homo sapiens, UniProt P30926+Q15825); assay: Competition binding to α6β3β4α5 receptors in membranes of SH-EP1/α6β3β4α5 cells ([3H]-epibatidine); details: membrane competition binding, read-out: α6β3β4α5 Ki
T3 construct: host or cells: SH-EP1

SMILES	Ki (Human α4β2; read-out: Human α4β2 Ki) [nM]	also measured
O=C([C@@H]1CCCO1)N1CC2CC(C1)N2	370	–
O=C(N1CC2CC(C1)N2)C1(C(F)(F)F)CCC1	6300	–
CC1(C)CC(C(=O)N2CC3CC(C2)N3)C1	–	Ki (Human α4β2; Human α4β2 Ki): 69 nM; Ki (Rat α4β2; read-out: Rat α4β2 Ki): 520 nM
O=C(CC1CCCO1)N1CC2CC(C1)N2 (stereo not drawn)	2900	–
CC(=O)NCCC(=O)N1CC2CC(C1)N2	3400	–
CC(=O)NCCCC(=O)N1CC2CC(C1)N2	1900	–
O=C([C@H]1CCCO1)N1CC2CC(C1)N2	400	–
Cc1nocc1C(=O)N1CC2CC(C1)N2	–	Ki (Human α4β2; Human α4β2 Ki): 53 nM; Ki (Rat α4β2; Rat α4β2 Ki): 60 nM
CC(C)CC(=O)N1CC2CC(C1)N2	–	Ki (Human α4β2; Human α4β2 Ki): 34 nM; Ki (Rat α4β2; Rat α4β2 Ki): 70 nM
O=C(C1CC=CCC1)N1CC2CC(C1)N2 (stereo not drawn)	120	Ki (Rat α4β2; read-out: Rat α4β2 Ki): 390 nM
O=C(c1cnc(Cl)c(Cl)c1)N1CC2CC(C1)N2	1500	–
Cc1cc(C(=O)N2CC3CC(C2)N3)no1	1100	–
O=C(CC1C=CCC1)N1C2CNCC1C2 (stereo not drawn)	150	Ki (Rat α4β2; Rat α4β2 Ki): 71 nM
O=C(C1Cc2ccccc2C1)N1C2CNCC1C2	3000	–
O=C(COCc1ccccc1)N1C2CNCC1C2	1400	–
O=C(CCOc1ccc(F)cc1)N1C2CNCC1C2	1200	–
O=C(C1Cc2ccccc21)N1C2CNCC1C2 (stereo not drawn)	9400	–
CO[C@H](C(=O)N1C2CNCC1C2)c1ccccc1	7100	–
O=C(Cc1c[nH]c2ccccc12)N1C2CNCC1C2	2200	–
O=C(COc1ccc(F)cc1)N1C2CNCC1C2	1300	–
O=C(CC1CCCO1)N1C2CNCC1C2 (stereo not drawn)	2000	–

SMILES	Ki (Human α4β2; read-out: Human α4β2 Ki) [nM]	also measured
O=C([C@@H]1CCCO1)N1C2CNCC1C2	750	–
O=C(CC1CCOCC1)N1C2CNCC1C2	3300	–
Cn1c(C(=O)N2C3CNCC2C3)cc2ccccc21	2900	–
O=C(C1CCOCC1)N1C2CNCC1C2	2000	–
O=C(C1CC=CC1)N1CC2CC(C1)N2	–	Ki (Human α4β2; Human α4β2 Ki): 37 nM; Ki (Rat α4β2; Rat α4β2 Ki): 260 nM
COCC(=O)N1CC2CC(C1)N2	–	Ki (Human α4β2; Human α4β2 Ki): 79 nM; Ki (Rat α4β2; Rat α4β2 Ki): 50 nM
CCC(C)C(=O)N1CC2CC(C1)N2 (stereo not drawn)	150	Ki (Rat α4β2; read-out: Rat α4β2 Ki): 240 nM
O=C(C1CNC1)N1CC2CC(C1)N2	430	–
O=C(C1CC2CCC1C2)N1CC2CC(C1)N2 (stereo not drawn)	–	Ki (Human α4β2; Human α4β2 Ki): 60 nM; Ki (Rat α4β2; read-out: Rat α4β2 Ki): 220 nM
O=C(c1ccnc(Cl)c1)N1CC2CC(C1)N2	450	–
O=C(C1CCCC1)N1CC2CC(C1)N2	–	Ki (Human α4β2; Human α4β2 Ki): 170 nM; Ki (Rat α4β2; Rat α4β2 Ki): 77 nM
O=C(c1cc(Cl)cc(Cl)c1)N1CC2CC(C1)N2	3300	–
O=C(C1CCC1)N1CC2CC(C1)N2	–	Ki (Human α4β2; Human α4β2 Ki): 28 nM; Ki (Rat α4β2; Rat α4β2 Ki): 6.8 nM
O=C(C1CC=CC1)N1C2CNCC1C2	810	–
COCC(=O)N1C2CNCC1C2	410	–
CCC(C)C(=O)N1C2CNCC1C2 (stereo not drawn)	290	–
O=C(C1CC2CCC1C2)N1C2CNCC1C2 (stereo not drawn)	1700	–
O=C(c1ccnc(Cl)c1)N1C2CNCC1C2	970	–
CC1(C)C(C(=O)N2C3CNCC2C3)C1(C)C	11000	–
CC1CC1C(=O)N1C2CNCC1C2 (stereo not drawn)	–	Ki (Human α4β2; Human α4β2 Ki): 46 nM; Ki (Rat α4β2; Rat α4β2 Ki): 34 nM
O=C(C1CCCC1)N1C2CNCC1C2	420	–

SMILES	Ki (Human α4β2; read-out: Human α4β2 Ki) [nM]	also measured
O=C(c1cc(Cl)cc(Cl)c1)N1C2CNCC1C2	1200	Ki (α6β3β4α5): 14000 nM
Cc1cc(C(=O)N2C3CNCC2C3)no1	–	Ki (Human α4β2; Human α4β2 Ki): 100 nM; Ki (Rat α4β2; Rat α4β2 Ki): 50 nM
Cc1ncoc1C(=O)N1C2CNCC1C2	140	Ki (Rat α4β2; read-out: Rat α4β2 Ki): 250 nM
Cc1nocc1C(=O)N1C2CNCC1C2	1100	–
O=C(c1cnco1)N1C2CNCC1C2	–	Ki (Human α4β2; Human α4β2 Ki): 72 nM; Ki (Rat α4β2; Rat α4β2 Ki): 17 nM
CC(C)C(=O)N1C2CNCC1C2	260	–
CC(C)CC(=O)N1C2CNCC1C2	120	Ki (Rat α4β2; Rat α4β2 Ki): 59 nM
O=C(C1CC=CCC1)N1C2CNCC1C2 (stereo not drawn)	1200	–
CC1(C)CC(C(=O)N2C3CNCC2C3)C1	760	–
O=C(CC1C=CCC1)N1CC2CC(C1)N2 (stereo not drawn)	–	Ki (Human α4β2; Human α4β2 Ki): 11 nM; Ki (Rat α4β2; Rat α4β2 Ki): 34 nM
O=C(CC1CCCC1)N1CC2CC(C1)N2	440	–
O=C(C1Cc2ccccc2C1)N1CC2CC(C1)N2	800	–
O=C(COCc1ccccc1)N1CC2CC(C1)N2	1000	–
O=C(CCOc1ccc(F)cc1)N1CC2CC(C1)N2	660	–
O=C(C1Cc2ccccc21)N1CC2CC(C1)N2 (stereo not drawn)	2000	–
CO[C@H](C(=O)N1CC2CC(C1)N2)c1ccccc1	950	–
O=C(CC1CCOC1)N1CC2CC(C1)N2 (stereo not drawn)	240	–
O=C(Cc1c[nH]c2ccccc12)N1CC2CC(C1)N2	750	–
O=C(COc1ccc(F)cc1)N1CC2CC(C1)N2	360	–
O=C(CC1CCOCC1)N1CC2CC(C1)N2	2800	–
Cn1c(C(=O)N2CC3CC(C2)N3)cc2ccccc21	420	–

SMILES	Ki (Human α4β2; read-out: Human α4β2 Ki) [nM]	also measured
O=C(C1CCOCC1)N1CC2CC(C1)N2	320	–
O=C(CC1CC1)N1CC2CC(C1)N2	–	Ki (Human α4β2; Human α4β2 Ki): 64 nM; Ki (Rat α4β2; Rat α4β2 Ki): 17 nM
O=C([C@H]1C[C@H]1F)N1C2CNCC1C2	–	Ki (Human α4β2; Human α4β2 Ki): 3.7 nM; Ki (Rat α4β2; Rat α4β2 Ki): 0.89 nM
O=C([C@H]1C[C@@H]1F)N1C2CNCC1C2	–	Ki (Human α4β2; Human α4β2 Ki): 2.2 nM; Ki (Rat α4β2; Rat α4β2 Ki): 1 nM
O=C(COc1ccc(Cl)c(Cl)c1)N1CC2CC(C1)N2	330	Ki (α6β3β4α5): 700 nM
O=C(NCc1ccc(Cl)cc1)N1C2CNCC1C2	6500	Ki (α6β3β4α5): 3400 nM
O=C(NCc1ccc(Cl)cc1Cl)N1C2CNCC1C2	1100	Ki (α6β3β4α5): 21000 nM
C[C@@H]1C[C@@H]1C(=O)N1CC2CC(C1)N2	22	–
O=C(OCCF)N1CC2CC(C1)N2 [3-(2-fluoroethoxy)carbonyl-3,6-diazabicyclo[3.1.1]heptane]	–	Ki (Human α4β2; Human α4β2 Ki): 5.9 nM; Ki (Rat α4β2; Rat α4β2 Ki): 52 nM
COCCC(=O)N1CC2CC(C1)N2 [3-(2-methoxyethyl)carbonyl-3,6-diazabicyclo[3.1.1]heptane]	–	Ki (Human α4β2; Human α4β2 Ki): 72 nM
O=C(c1ccno1)N1CC2CC(C1)N2 [3-(isoxazol-5-yl)carbonyl-3,6-diazabicyclo[3.1.1]heptane]	150	–
O=C(C1CCOC1)N1CC2CC(C1)N2 (stereo not drawn) [3-(tetrahydrofuran-3-yl)carbonyl-3,6-diazabicyclo[3.1.1]heptane]	270	–
CC(C)OC(=O)N1CC2CC(C1)N2 [3-isopropoxycarbonyl-3,6-diazabicyclo[3.1.1]heptane]	130	–
COCCOC(=O)N1CC2CC(C1)N2 [3-methoxyethoxycarbonyl-3,6-diazabicyclo[3.1.1]heptane]	120	–
CC(=O)N1CC2CC(C1)N2 [3-methylcarbonyl-3,6-diazabicyclo[3.1.1]heptane]	–	Ki (Human α4β2; Human α4β2 Ki): 170 nM
CCCOC(=O)N1CC2CC(C1)N2 [3-propoxycarbonyl-3,6-diazabicyclo[3.1.1]heptane]	–	Ki (Human α4β2; Human α4β2 Ki): 24 nM
O=C(c1ccc(Br)o1)N1C2CNCC1C2 [6-(2-bromorofuran-5-yl)carbonyl-3,6-diazabicyclo[3.1.1]heptane]	–	Ki (Human α4β2; Human α4β2 Ki): 66 nM; Ki (Rat α4β2; read-out: Rat α4β2 Ki): 260 nM
O=C(c1ccc(Cl)o1)N1C2CNCC1C2 [6-(2-chlorofuran-5-yl)carbonyl-3,6-diazabicyclo[3.1.1]heptane]	–	Ki (Human α4β2; Human α4β2 Ki): 38 nM; Ki (Rat α4β2; Rat α4β2 Ki): 44 nM
COCCC(=O)N1C2CNCC1C2 [6-(2-methoxyethyl)carbonyl-3,6-diazabicyclo[3.1.1]heptane]	370	–
O=C(C1CCC1)N1C2CNCC1C2 [6-cyclobutylcarbonyl-3,6-diazabicyclo[3.1.1]heptane]	–	Ki (Human α4β2; Human α4β2 Ki): 14 nM; Ki (Rat α4β2; Rat α4β2 Ki): 26 nM
